Patent US12209102B2, “Heterocyclic compounds and uses thereof” (Kumquat Biosciences Inc., priority 2022, dated 2025)

Key:
[1] = target: T1, K-Ras G12D (Homo sapiens, UniProt P01116, G12D); assay: HTRF resonance energy transfer assay, K-Ras G12D / SOS1 interaction; assay type: biochemical; details: HTRF assay of Example 5; read-out: IC50 against K-Ras G12D
T1 construct: made in house; host or cells: E. coli BL21 (DE3)
In short: (§1)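 GST-tagged K-Ras (WT or mutant) bound to anti-GST-Eu donor was mixed with His-hSOS1 bound to anti-6His-XL665 acceptor in ~5 mM HEPES pH 7.4, 150 mM NaCl, 1 mM DTT, 0.05% BSA, 0.0025% Igepal. HTRF (ex 337, em 620/665 nm) was read after ~10 min or longer. IC50 came from the 665/620 ratio over duplicates from 10 μM to 0.01 μM.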

[2] = target: T2, K-Ras G12S (Homo sapiens, UniProt P01116, G12S); assay: HTRF resonance energy transfer assay, K-Ras G12S / SOS1 interaction; assay type: biochemical; details: HTRF assay of Example 5; read-out: IC50 against K-Ras G12S
T2 construct: made in house; host or cells: E. coli BL21 (DE3)
In short: as §1

[3] = target: T3, K-Ras G12V (Homo sapiens, UniProt P01116, G12V); assay: HTRF resonance energy transfer assay, K-Ras G12V / SOS1 interaction; assay type: biochemical; details: HTRF assay of Example 5; read-out: IC50 against K-Ras G12V
T3 construct: made in house; host or cells: E. coli BL21 (DE3)
In short: as §1

[4] = target: T4, K-Ras WT (Homo sapiens, UniProt P01116); assay: HTRF resonance energy transfer assay, K-Ras WT / SOS1 interaction; assay type: biochemical; details: HTRF assay of Example 5; read-out: IC50 against K-Ras WT
T4 construct: made in house; host or cells: E. coli BL21 (DE3)
In short: as §1

[5] = tested on: SW620 cells; assay: Ras cellular assay, growth of cells with K-Ras G12V mutation (CellTiter-Glo); assay type: cell-based; details: Homo sapiens, SW-620; cell growth, Example 9, G12V mutation; read-out: IC50 against SW620 cells
Method: For example, this assay can be also used to assess a selective growth inhibition of a mutant Ras protein relative to a wildtype, or relative to a different mutant Ras protein.
SW620 (ATCC CCL-227) and Capan-1 (ATCC HTB-79) cell lines comprise a G12V mutation and can be used to assess Ras cellular signaling in vitro, e.g., in response to the compounds herein. SW620 culture medium is prepared with RPMI-1640 and 10% heat-inactivated FBS. Capan-1 culture medium is prepared with RPMI-1640 and 10% heat-inactivated FBS. A CellTiter-Glo (CTG) luminescent based assay (Promega) is used to assess growth of the cells, as a measurement of the ability of the compounds herein to inhibit Ras signaling in the cells. The cells (e.g., 800 per well) are seeded in their respective culture medium in standard tissue culture-treated 384-well format plates (Falcon #08-772-116) or ultra-low attachment surface 384-well format plates (S-Bio #MS-9384WZ). The day after plating, cells are treated with a dilution series (e.g., a 10 point 3-fold dilution series) of the compounds herein (e.g., approximately 40 μL final volume per well). Cell viability can be monitored (e.g., approximately 6 days later) according to the manufacturer's recommended instructions, where the CellTiter-Glo reagent is added (e.g., approximately 10 μL), vigorously mixed, covered, and placed on a plate shaker (e.g., approximately for 20 min) to ensure sufficient cell lysis prior to assessment of luminescent signal. The IC50 values are determined using the four parameter fit. The resulting IC50 value is a measurement of the ability of the compounds herein to reduce cell growth of Ras-driven cells (e.g., tumor cell lines) in vitro and/or in vivo.

T2 sequence (P01116 1-188 isoform P01116-2 G12S): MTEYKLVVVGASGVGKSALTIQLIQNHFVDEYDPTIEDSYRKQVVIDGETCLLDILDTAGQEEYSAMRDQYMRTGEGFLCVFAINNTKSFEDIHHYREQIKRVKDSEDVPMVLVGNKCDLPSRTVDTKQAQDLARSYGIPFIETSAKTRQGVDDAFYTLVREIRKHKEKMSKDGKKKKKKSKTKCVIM
T4 sequence (P01116 1-188 isoform P01116-2): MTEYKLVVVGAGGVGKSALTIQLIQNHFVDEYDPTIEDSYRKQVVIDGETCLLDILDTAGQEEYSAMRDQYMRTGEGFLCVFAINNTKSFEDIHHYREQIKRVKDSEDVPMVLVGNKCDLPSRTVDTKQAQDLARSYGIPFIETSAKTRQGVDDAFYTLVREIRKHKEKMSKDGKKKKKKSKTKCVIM
T3 sequence (P01116 1-188 isoform P01116-2 G12V): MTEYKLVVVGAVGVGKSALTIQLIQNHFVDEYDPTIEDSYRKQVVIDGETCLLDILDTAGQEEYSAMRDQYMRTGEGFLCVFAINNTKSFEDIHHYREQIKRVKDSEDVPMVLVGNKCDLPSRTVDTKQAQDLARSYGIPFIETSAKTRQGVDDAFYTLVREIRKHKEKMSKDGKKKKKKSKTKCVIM
T1 sequence (P01116 1-188 isoform P01116-2 G12D): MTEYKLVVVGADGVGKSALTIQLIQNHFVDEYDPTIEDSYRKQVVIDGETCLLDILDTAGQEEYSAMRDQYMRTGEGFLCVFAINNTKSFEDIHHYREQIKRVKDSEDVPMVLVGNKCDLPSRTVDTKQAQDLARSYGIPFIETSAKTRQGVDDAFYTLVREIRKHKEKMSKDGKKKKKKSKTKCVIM

IC50 [1] | IC50 [2] | IC50 [3] | IC50 [4] | IC50 [5] | Compound
< 100 nM | < 100 nM | < 100 nM | < 100 nM | < 5000 nM | CC(O)C1COc2c(Cl)c(-c3ccc(F)c4sc(N)c(C#N)c34)c(F)c3nc(OC[C@@]45CCCN4C[C@H](F)C5)nc(c23)N1CC1CCCNC1 (stereo partly drawn) [Compound 764, 2-amino-4-(8-chloro-10-fluoro-2-(((2R,7aS)-2-fluorotetrahydro-1H-pyrrolizin-7a(5H)-yl)methoxy)-5-(1-hydroxyethyl)-4-(piperidin-3-ylmethyl)-5,6-dihydro-4H-[1,4]oxazepino[5,6,7-de]quinazolin-9-yl)-7-fluorobenzo[b]thiophene-3-carbonitrile]
< 100 nM | < 100 nM | < 100 nM | < 100 nM | < 5000 nM | Cn1nc(N)cc1CN1CCOc2c(Cl)c(-c3ccc(F)c4sc(N)c(C#N)c34)c(F)c3nc(OC[C@@]45CCCN4C[C@H](F)C5)nc1c23 [Compound 770, 2-amino-4-(4-((3-amino-1-methyl-1H-pyrazol-5-yl)methyl)-8-chloro-10-fluoro-2-(((2R,7aS)-2-fluorotetrahydro-1H-pyrrolizin-7a(5H)-yl)methoxy)-5,6-dihydro-4H-[1,4]oxazepino[5,6,7-de]quinazolin-9-yl)-7-fluorobenzo[b]thiophene-3-carbonitrile]
< 100 nM | < 100 nM | < 100 nM | < 100 nM | < 5000 nM | CC1Oc2c(Cl)c(-c3ccc(F)c4sc(N)c(C#N)c34)c(F)c3nc(OC[C@@]45CCCN4C[C@H](F)C5)nc(c23)N(CC(F)F)[C@H]1C(C)(C)O (stereo partly drawn) [Compound 810, 2-amino-4-((5R)-8-chloro-4-(2,2-difluoroethyl)-10-fluoro-2-(((2R,7aS)-2-fluorotetrahydro-1H-pyrrolizin-7a(5H)-yl)methoxy)-5-(2-hydroxypropan-2-yl)-6-methyl-5,6-dihydro-4H-[1,4]oxazepino[5,6,7-de]quinazolin-9-yl)-7-fluorobenzo[b]thiophene-3-carbonitrile]
< 100 nM | < 100 nM | < 100 nM | < 100 nM | < 5000 nM | N#Cc1c(N)sc2c(F)ccc(-c3c(Cl)c4c5c(nc(OC[C@@]67CCCN6C[C@H](F)C7)nc5c3F)N(C3CCC(N)C3)CCO4)c12 (stereo partly drawn) [Compound 907, 2-amino-4-(4-(3-aminocyclopentyl)-8-chloro-10-fluoro-2-(((2R,7aS)-2-fluorotetrahydro-1H-pyrrolizin-7a(5H)-yl)methoxy)-5,6-dihydro-4H-[1,4]oxazepino[5,6,7-de]quinazolin-9-yl)-7-fluorobenzo[b]thiophene-3-carbonitrile]

The remaining lines, values behind:

Compound | IC50 [1] | IC50 [2] | IC50 [3] | IC50 [4] | IC50 [5]
N#Cc1c(N)sc2c(F)ccc(-c3c(Cl)c4c5c(nc(OC[C@@]67CCCN6C[C@H](F)C7)nc5c3F)N(Cc3ccnn3CC(F)F)CCO4)c12 [Compound 720, 2-amino-4-(8-chloro-4-((1-(2,2-difluoroethyl)-1H-pyrazol-5-yl)methyl)-10-fluoro-2-(((2R,7aS)-2-fluorotetrahydro-1H-pyrrolizin-7a(5H)-yl)methoxy)-5,6-dihydro-4H-[1,4]oxazepino[5,6,7-de]quinazolin-9-yl)-7-fluorobenzo[b]thiophene-3-carbonitrile] | < 100 nM | < 100 nM | < 100 nM | < 100 nM | < 5000 nM
C[C@H]1COc2c(Cl)c(-c3ccc(F)c4sc(N)c(C#N)c34)c(F)c3nc(OC[C@@]45CCCN4C[C@H](F)C5)nc(c23)N1C1CCOC1 (stereo partly drawn) [Compound 750, 2-amino-4-((5S)-8-chloro-10-fluoro-2-(((2R,7aS)-2-fluorotetrahydro-1H-pyrrolizin-7a(5H)-yl)methoxy)-5-methyl-4-(tetrahydrofuran-3-yl)-5,6-dihydro-4H-[1,4]oxazepino[5,6,7-de]quinazolin-9-yl)-7-fluorobenzo[b]thiophene-3-carbonitrile] | < 100 nM | < 100 nM | < 100 nM | < 100 nM | < 5000 nM
N#Cc1c(N)sc2c(F)ccc(-c3c(Cl)c4c5c(nc(OC[C@@]67CCCN6C[C@H](F)C7)nc5c3F)N(C3CCCC3O)CCO4)c12 (stereo partly drawn) [Compound 808, 2-amino-4-(8-chloro-10-fluoro-2-(((2R,7aS)-2-fluorotetrahydro-1H-pyrrolizin-7a(5H)-yl)methoxy)-4-(2-hydroxycyclopentyl)-5,6-dihydro-4H-[1,4]oxazepino[5,6,7-de]quinazolin-9-yl)-7-fluorobenzo[b]thiophene-3-carbonitrile] | < 100 nM | < 100 nM | < 100 nM | < 100 nM | < 5000 nM
N#Cc1c(N)sc2c(F)ccc(-c3c(Cl)c4c5c(nc(OC[C@@]67CCCN6C[C@H](F)C7)nc5c3F)N(CC3CCCN3C(=O)C3CN3)CCO4)c12 (stereo partly drawn) [Compound 811, 2-amino-4-(4-((1-(aziridine-2-carbonyl)pyrrolidin-2-yl)methyl)-8-chloro-10-fluoro-2-(((2R,7aS)-2-fluorotetrahydro-1H-pyrrolizin-7a(5H)-yl)methoxy)-5,6-dihydro-4H-[1,4]oxazepino[5,6,7-de]quinazolin-9-yl)-7-fluorobenzo[b]thiophene-3-carbonitrile] | < 100 nM | < 100 nM | < 100 nM | < 100 nM | < 5000 nM
C[C@H]1COc2c(Cl)c(-c3ccc(F)c4sc(N)c(C#N)c34)c(F)c3nc(OC[C@@]45CCCN4C[C@H](F)C5)nc(c23)N1CC1CC1C#N (stereo partly drawn) [Compound 818, 2-amino-4-((5S)-8-chloro-4-((2-cyanocyclopropyl)methyl)-10-fluoro-2-(((2R,7aS)-2-fluorotetrahydro-1H-pyrrolizin-7a(5H)-yl)methoxy)-5-methyl-5,6-dihydro-4H-[1,4]oxazepino[5,6,7-de]quinazolin-9-yl)-7-fluorobenzo[b]thiophene-3-carbonitrile] | < 100 nM | < 100 nM | < 100 nM | < 100 nM | < 5000 nM
N#Cc1c(N)sc2c(F)ccc(-c3c(Cl)c4c5c(nc(OC[C@@]67CCCN6C[C@H](F)C7)nc5c3F)N(CC3CC3C#N)[C@@H](C(F)F)CO4)c12 (stereo partly drawn) [Compound 853, 2-amino-4-((5R)-8-chloro-4-((2-cyanocyclopropyl)methyl)-5-(difluoromethyl)-10-fluoro-2-(((2R,7aS)-2-fluorotetrahydro-1H-pyrrolizin-7a(5H)-yl)methoxy)-5,6-dihydro-4H-[1,4]oxazepino[5,6,7-de]quinazolin-9-yl)-7-fluorobenzo[b]thiophene-3-carbonitrile] | < 100 nM | < 100 nM | < 100 nM | < 100 nM | < 5000 nM
N#Cc1c(N)sc2c(F)ccc(-c3c(Cl)c4c5c(nc(OC[C@@]67CCCN6C[C@H](F)C7)nc5c3F)N(CC(F)F)[C@@H](CNC(=O)[C@H]3CN3)CO4)c12 [Compound 1053, (2R)-N-(((5S)-9-(2-amino-3-cyano-7-fluorobenzo[b]thiophen-4-yl)-8-chloro-4-(2,2-difluoroethyl)-10-fluoro-2-(((2R,7aS)-2-fluorotetrahydro-1H-pyrrolizin-7a(5H)-yl)methoxy)-5,6-dihydro-4H-[1,4]oxazepino[5,6,7-de]quinazolin-5-yl)methyl)aziridine-2-carboxamide] | < 100 nM | < 100 nM | < 100 nM | < 100 nM | < 5000 nM
N#Cc1c(N)sc2c(F)ccc(-c3c(Cl)c4c5c(nc(OC[C@@]67CCCN6C[C@H](F)C7)nc5c3F)N(C3CC3)[C@@H](CNC=O)CO4)c12 [Compound 1084, N-(((5S)-9-(2-amino-3-cyano-7-fluorobenzo[b]thiophen-4-yl)-8-chloro-4-cyclopropyl-10-fluoro-2-(((2R,7aS)-2-fluorotetrahydro-1H-pyrrolizin-7a(5H)-yl)methoxy)-5,6-dihydro-4H-[1,4]oxazepino[5,6,7-de]quinazolin-5-yl)methyl)formamide] | < 100 nM | < 100 nM | < 100 nM | < 100 nM | < 5000 nM
